Data from patent EP1383793B1 (priority 2000, dated 2001).
Positions of bridges follow the written chain, without caps; N, C: chain ends. Residues, ends and D or L forms follow the SMILES beside them. *: point of attachment. Biotin = O=C1N[C@H]2[C@H](CS[C@H]2CCCCC(=O)*)N1

Assays:
IGF-1R [1] = molecular target: T1, IGF-1R (Homo sapiens, UniProt P08069); assay: Phage ELISA, binding of phage-displayed peptides to IGF-1R; details: 405 nm
T1 construct: Soluble IGF-1R was obtained from R&D Systems; purchased R&D Systems 391-GR/CF
T1 sequence (P08069 31-736 limits assumed): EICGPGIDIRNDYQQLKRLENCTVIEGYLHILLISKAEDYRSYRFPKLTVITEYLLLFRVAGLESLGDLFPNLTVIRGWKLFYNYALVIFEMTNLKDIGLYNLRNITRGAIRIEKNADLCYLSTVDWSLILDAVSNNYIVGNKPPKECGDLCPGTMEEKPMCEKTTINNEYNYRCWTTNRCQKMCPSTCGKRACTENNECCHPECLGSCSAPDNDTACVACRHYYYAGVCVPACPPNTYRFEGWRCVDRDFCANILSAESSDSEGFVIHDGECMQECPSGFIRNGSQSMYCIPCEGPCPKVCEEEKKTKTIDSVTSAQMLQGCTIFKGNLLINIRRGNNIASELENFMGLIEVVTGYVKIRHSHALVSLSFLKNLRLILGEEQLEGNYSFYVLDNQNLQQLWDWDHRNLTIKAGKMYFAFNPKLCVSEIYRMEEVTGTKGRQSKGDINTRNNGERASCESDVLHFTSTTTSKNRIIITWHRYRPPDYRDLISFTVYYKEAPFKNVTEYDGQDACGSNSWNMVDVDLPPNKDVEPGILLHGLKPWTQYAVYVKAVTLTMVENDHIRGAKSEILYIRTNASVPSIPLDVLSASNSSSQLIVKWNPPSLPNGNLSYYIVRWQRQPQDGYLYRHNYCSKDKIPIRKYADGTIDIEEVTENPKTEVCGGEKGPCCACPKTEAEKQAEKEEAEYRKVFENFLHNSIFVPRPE
T1 sequence (P08069 741-935 limits assumed): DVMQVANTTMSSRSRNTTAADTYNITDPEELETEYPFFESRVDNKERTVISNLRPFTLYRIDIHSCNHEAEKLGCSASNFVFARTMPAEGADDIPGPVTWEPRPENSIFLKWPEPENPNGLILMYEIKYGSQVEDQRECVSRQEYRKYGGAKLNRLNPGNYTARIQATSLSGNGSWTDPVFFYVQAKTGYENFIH
Experimental: Figures 1A-10G. Amino acid sequences comprising the motif of Formulas 1 through 10. […] One hundred microliters of this solution was added to an appropriate number of wells in a 96-well microtiter plate (MaxiSorp plates, Nunc) and incubated overnight at 4°C. […] Subsequent steps are the same for pooled and clonal phage. […] Phage resuspended in MPBS were added to duplicate wells (100 µl/well) and incubated at RT for 1 h. […] Incubation was for 1 h at RT, followed by PBS washes as described. […] Phage ELISA. […] The wells were blocked with 200 µl of MPBS for 1.5 h at RT. Phage were added at 100 µl per well. Peptides were added as noted below and allowed to incubate at RT for 3 h. The plates were washed 3 times with PBST. A solution of 1:3000 diluted HRP:Anti-M13 conjugate at 100 µl per well of was added for 1 h. Following a repeat of the washing, 100 µl of ABTS was added for 15-30 min. […] Phage ELISA. […] Phage were added at 100 µl per well. Peptides were added as noted below and allowed to incubate at RT for 3 h. The plates were washed 3X with PBST. A solution of 1:3000 diluted HRP:Anti-M13 Conjugate at 100 µl per well of was added for 1 h. Following a repeat of the washing, 100 µl of ABTS was added for 15-30 min. The OD405 was measured using a SpectraMax 340 Microplate Spectrophotometer.

Insulin receptor [2] = molecular target: T2, Insulin receptor (Homo sapiens, UniProt P06213); assay: BIAcore competition: IR pre-incubated with test substance, injected over immobilised insulin; assay type: binding; details: peptide about 40 µM, IR 450 nM; IR alone 128 RU
T2 construct: composed of the extracellular domains of both the α and β chains of the natural receptor; made in house; background b13 names human embryonic kidney 293 cells for the Bass et al. construct
T2 sequence (P06213 28-758 limits assumed): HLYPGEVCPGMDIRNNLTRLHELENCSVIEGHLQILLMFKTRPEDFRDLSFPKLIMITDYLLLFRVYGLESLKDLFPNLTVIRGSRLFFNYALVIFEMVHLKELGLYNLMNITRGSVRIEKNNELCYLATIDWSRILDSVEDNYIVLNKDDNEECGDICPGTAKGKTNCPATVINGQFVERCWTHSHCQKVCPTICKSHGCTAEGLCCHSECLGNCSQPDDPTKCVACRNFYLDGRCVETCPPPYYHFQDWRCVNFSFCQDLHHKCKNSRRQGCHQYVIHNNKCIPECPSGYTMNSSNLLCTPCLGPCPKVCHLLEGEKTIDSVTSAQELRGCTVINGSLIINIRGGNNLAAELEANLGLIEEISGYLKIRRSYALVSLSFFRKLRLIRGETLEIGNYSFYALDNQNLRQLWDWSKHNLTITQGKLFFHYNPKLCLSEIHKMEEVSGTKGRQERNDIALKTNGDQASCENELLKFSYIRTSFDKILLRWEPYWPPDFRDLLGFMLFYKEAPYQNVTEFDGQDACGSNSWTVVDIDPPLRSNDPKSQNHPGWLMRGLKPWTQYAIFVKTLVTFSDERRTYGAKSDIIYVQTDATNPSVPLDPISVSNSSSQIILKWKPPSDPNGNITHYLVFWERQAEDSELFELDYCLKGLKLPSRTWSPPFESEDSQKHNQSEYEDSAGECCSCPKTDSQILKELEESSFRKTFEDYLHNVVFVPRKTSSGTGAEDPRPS
T2 sequence (P06213 763-956 limits assumed): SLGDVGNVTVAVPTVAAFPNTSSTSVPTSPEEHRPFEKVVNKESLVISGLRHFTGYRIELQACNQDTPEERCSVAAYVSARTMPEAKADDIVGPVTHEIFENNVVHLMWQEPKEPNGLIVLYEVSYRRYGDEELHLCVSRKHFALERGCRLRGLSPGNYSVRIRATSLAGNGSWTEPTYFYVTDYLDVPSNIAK
Experimental: Flowcell-1 was used for background binding to correct for any non-specific binding. […] The surface was regenerated with 25 mM NaOH. […] Thus, the system was validated for competition studies. […] The amino acid sequences referred to in the tables are identified in Figures 47 and 48, except the 447 and 2A9 sequences, which are shown below. TABLE 9: BIAcore Results-Fusion Proteins Compete for Binding to IR

IR [3] = molecular target: T3, IR (Homo sapiens, UniProt P06213); assay: Phage ELISA, binding of phage-displayed peptides to IR
T3 construct: composed of the extracellular domains of both the α and β chains of the natural receptor; made in house; background b13 names human embryonic kidney 293 cells for the Bass et al. construct
T3 sequence (P06213 28-758 limits assumed): as the sequence (P06213 28-758 limits assumed) above
T3 sequence (P06213 763-956 limits assumed): as the sequence (P06213 763-956 limits assumed) above
Experimental: Amino acid sequences comprising the motif of Formulas 1 through 10. […] Fifty microliters of this solution was added to an appropriate number of wells in a 96-well microtiter plate (MaxiSorp plates, Nunc) and incubated overnight at 4°C. […] To isolate specific binders, each library was panned against a soluble form of the human IR. This IR is composed of the extracellular domains of both the α and β chains of the natural receptor, as well as the constant domain from immunoglobulin Fc, retaining the β-α-α-β structure described above. Because the IR is expressed in a eukaryotic system, disulfide bond formation and glycosylation patterns should mimic the wild-type receptor. The details of this recombinant protein construct are described in Bass et al. (1996). Phage ELISA. […] The wells were blocked with 200 µl of MPBS for 1.5 h at RT. […] Peptides were added as noted below and allowed to incubate at RT for 3 h. The plates were washed 3 times with PBST. A solution of 1:3000 diluted HRP:Anti-M13 conjugate at 100 µl per well of was added for 1 h. Following a repeat of the washing, 100 µl of ABTS was added for 15-30 min. […] Phage ELISA. […] Peptides were added as noted below and allowed to incubate at RT for 3 h. […] A solution of 1:3000 diluted HRP:Anti-M13 Conjugate at 100 µl per well of was added for 1 h. Following a repeat of the washing, 100 µl of ABTS was added for 15-30 min. The OD405 was measured using a SpectraMax 340 Microplate Spectrophotometer.

[4] = molecular target: T4, purified insulin receptor (Homo sapiens, UniProt P06213); assay: Holoenzyme phosphorylation assay (IR autophosphorylation, Western blot); assay type: biochemical
T4 construct: host or cells: 'Wheat Germ Agglutinin Expression System' (so in the source)
T4 sequence (P06213 28-758 limits assumed): as the sequence (P06213 28-758 limits assumed) above
T4 sequence (P06213 763-1382 limits assumed): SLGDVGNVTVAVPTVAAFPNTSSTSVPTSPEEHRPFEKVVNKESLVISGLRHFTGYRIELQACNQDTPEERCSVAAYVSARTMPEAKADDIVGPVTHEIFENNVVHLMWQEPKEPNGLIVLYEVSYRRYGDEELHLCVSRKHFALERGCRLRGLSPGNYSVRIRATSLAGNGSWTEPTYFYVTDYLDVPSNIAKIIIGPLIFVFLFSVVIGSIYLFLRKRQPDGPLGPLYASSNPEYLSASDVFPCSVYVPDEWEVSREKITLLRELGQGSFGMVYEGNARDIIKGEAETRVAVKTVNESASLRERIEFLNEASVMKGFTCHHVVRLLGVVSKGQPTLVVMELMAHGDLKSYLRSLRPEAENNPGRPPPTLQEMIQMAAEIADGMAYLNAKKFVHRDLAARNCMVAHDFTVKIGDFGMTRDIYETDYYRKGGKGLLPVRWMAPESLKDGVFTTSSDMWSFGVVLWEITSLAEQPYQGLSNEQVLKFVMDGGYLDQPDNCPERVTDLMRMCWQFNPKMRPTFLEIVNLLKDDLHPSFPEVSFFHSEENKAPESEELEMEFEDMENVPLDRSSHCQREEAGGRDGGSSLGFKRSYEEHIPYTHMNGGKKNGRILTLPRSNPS
Experimental: Alternatively, IR autophosphorylation was determined using a holoenzyme phosphorylation assay. […] The reaction was stopped by adding 50 µl of gel loading buffer containing β-mercaptoethanol (Bio-Rad Laboratories, Inc., Hercules, CA). The samples were run on 4-12% SDS-polyacrylamide gels. Western Blot analysis was performed by transferring the proteins onto nitrocellulose membrane. The membrane was blocked in PBS containing 3% milk overnight. The membrane was incubated with anti-phosphotyrosine 4G10 HRP labeled antibody (Upstate Biotechnology) for 2 h. Protein bands were visualized using SuperSignal West Dura Extended Duration Substrate Chemiluminescence Detection System (Pierce Chemical Co.).

adipocytes = assay: 3H-glucose uptake into adipocytes (fat cell assay, FFC); assay type: cell-based, Mouse; design: key to Resp.: -2 (antagonist); +2 (agonist); details: for Resp.: Subjective ranking, basal and sub maximal insulin, includes series A; for ED50: Estimated, not calculated values; for ED50 in the effect assay (FFC): best peptides, agonists
IR [5] = molecular target: T3, IR; assay: Phage ELISA, competition of phage binding by soluble synthetic peptides, IR-coated wells; details: Insulin Receptor
Experimental: (§1) Peptide Competition. […] Twenty microliters of the stock synthetic-peptide solution was added to Row A. A series of 20 µl into 100 µl dilutions were performed until Row G. Twenty microliters were discarded from Row G to maintain 100 µl per well. Row H was reserved as no peptide wells. […] The volume was maintained by the addition of 18 µl of the phage solution to Row A.
(§2) Phage ELISA. […] The wells were blocked with 200 µl of 2% (w/v) Carnation non-fat dry milk in PBS for 1.5 h at RT. Phage were added at 100 µl per well. Peptides were added as noted below and allowed to incubate at RT for 3 h. The plates were washed 3X with PBST. A solution of 1:3000 diluted HRP:Anti-M13 Conjugate at 100 µl per well of was added for 1 h. Following a repeat of the washing, 100 µl of ABTS was added for 15-30 min. The OD405 was measured using a SpectraMax 340 Microplate Spectrophotometer.
(§3) Peptide Competition. Peptide Competition Curves were produced during the phage ELISA across rows in triplicate. The stock synthetic peptide solution was added to Column 12 so that the total volume totaled 150 µl (additional phage solution was added when necessary). A serial dilution was made by transferring 50 µl from Column 12 into 100 µl in Column 11, 50 µl from Column 11 into 100 µl in Column 10, and continuing the serial dilution until Column 2. Fifty microliters were discarded from Column 2 to maintain 100 µl per well. Column 1 was reserved as no peptide wells.
(§4) A p53-like peptide that binds to MDM2 was used as a negative control.

[6] = molecular target: human IGF-1 receptor (HIGF-1R) (Homo sapiens, UniProt P08069); assay: 125I-IGF-1 competition binding assay on solubilised purified receptor; details: Kd HIGF1R / Kd HIR
Sequence of human IGF-1 receptor (HIGF-1R) (P08069 31-736 limits assumed): as the sequence (P08069 31-736 limits assumed) above
Sequence of human IGF-1 receptor (HIGF-1R) (P08069 741-1367 limits assumed): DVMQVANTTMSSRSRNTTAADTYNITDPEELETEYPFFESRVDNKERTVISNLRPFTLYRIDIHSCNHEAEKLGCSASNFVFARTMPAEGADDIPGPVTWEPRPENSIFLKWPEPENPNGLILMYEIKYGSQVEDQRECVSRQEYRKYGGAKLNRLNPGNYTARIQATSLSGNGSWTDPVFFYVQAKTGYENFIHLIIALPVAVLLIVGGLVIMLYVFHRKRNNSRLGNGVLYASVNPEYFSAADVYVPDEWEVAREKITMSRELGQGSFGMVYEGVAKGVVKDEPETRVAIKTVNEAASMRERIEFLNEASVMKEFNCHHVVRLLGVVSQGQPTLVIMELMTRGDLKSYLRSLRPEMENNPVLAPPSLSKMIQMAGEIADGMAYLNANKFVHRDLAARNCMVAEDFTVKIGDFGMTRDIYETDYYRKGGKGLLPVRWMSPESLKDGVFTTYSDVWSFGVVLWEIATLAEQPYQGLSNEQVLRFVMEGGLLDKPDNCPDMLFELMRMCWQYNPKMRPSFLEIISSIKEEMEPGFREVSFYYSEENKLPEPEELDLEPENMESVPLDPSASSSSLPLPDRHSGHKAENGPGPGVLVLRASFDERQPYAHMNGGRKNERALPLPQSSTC

IGF-1R [7] = molecular target: T1, IGF-1R; assay: Phage ELISA, competition of phage binding by soluble synthetic peptides, IGF-1R-coated wells; details: IGF Receptor
Experimental: as §1, §2, §3, §4

[8] = Precipitate in diluted peptide stock prior to adding to the fat cell assay; solubility under assay conditions; assay type: physicochemical; details: for Comments (precipitation): diluted stock prior to adding to assay
Insulin receptor [9] = molecular target: T2, Insulin receptor; assay: Heterogeneous time-resolved fluorescence assay (TRFA) on insulin receptor; assay type: binding; details: peptide at 30 µM
Experimental: In this assay, saEu forms a ternary complex with bP and IR (i.e., IR:bP:saEu complex). The TRFD assay format is well established, sensitive, and quantitative (Tompkins et al., 1993). The assay can use a single-chain antibody or a biotinylated peptide.
In these assays, soluble IR is coated on the surface of microtiter wells, blocked by a solution of 0.5% BSA and 2% non-fat milk in PBS, and then incubated with biotinylated peptide or rVab. Unbound bP is then washed away and saEu is added to complex with receptor-bound bP. Upon addition of the acidic enhancement solution, the bound europium is released as free Eu^3+ which rapidly forms a highly fluorescent and stable complex with components of the enhancement solution. The IR:bP bound saEu is then converted into its highly fluorescent state and detected by a detector such as Wallac Victor II (EG&G Wallac, Inc.)
• a. Heterogeneous Time-Resolved Fluorescence Assay. […] The plates were blocked with TBS containing 2% milk and 0.5% BSA for 1 h at RT followed by three TBS washes. […] After TBS wash, europium-labeled streptavidin at 1 µg/ml in assay buffer (100 mM Tris-HCl, pH 7.8; 150 mM NaCl; 0.5% BSA; 0.05% bovine Ig; 0.05% NaN3; 0.01% Tween-20) was added to the plates and incubated for 1 h. To test binding of rVab antibodies to IR, Eu-labeled rVab antibodies in assay buffer were added to the plates and incubated for 2 h to overnight. After incubation with Eu-labeled streptavidin (for peptide test) or europium-labeled rVabs, the plates were washed 5 times with Tris-buffered saline (pH 7.5) containing 0.1 % Tween-20 (TTBS) and tapped dry. Sixty microliters of EG&G Wallac enhancement solution (100 mM acetone-potassium hydrogen pthalate, pH 3.2; […] 2-naphtyltrifluoroacetate; […] tri(n-octyl)-phosphine oxide; 0.1 % Triton X-100) was added into each well, and the plates were placed onto a shaker for 20 min at RT. […] Homogeneous Time-Resolved Fluorescence Assay. […] For library screening, 20 µM of small organic molecules in 2 % DMSO are included in the mixture.

Row | Absorbance Values sIGF-1R (IGF-1R [1]) | Result (RUs) (Insulin receptor [2]) | Absorbance Values IR (IR [3]; 405 nm) | Autophosph. Blot [4] | n (Hill plot) (IR [5]; 20D3 Phage) | n (Hill plot) (IR [5]; H2 Phage) | binding to IR when expressed as phage (IR [3]) | Ratio [6] | n (Hill plot) (IGF-1R [7]; H2 Phage) | Comments (precipitation) [8] | binding of rVab 12H10 to IR (Insulin receptor [9]) | n (Hill plot) (IGF-1R [7]; 20D3 Phage) | Comments (soluble under assay conditions) ([8]; under assay conditions, no ppt in microscope, low magnification) [µM] | Compound | Resp. (adipocytes) | Comments (dose response, effect at basal insulin) (adipocytes) | ED50 (adipocytes) | ED50 in the effect assay (FFC) (adipocytes) [µM]
1 | 0.21 | 41.8 | 1.61 | 0 |  |  |  |  |  |  |  |  |  | CC[C@H](C)[C@H](NC(=O)[C@H](CCC(=O)O)NC(=O)[C@@H](N)CCCCN)C(=O)N[C@@H](CCC(=O)O)C(=O)N[C@@H](C)C(=O)N[C@@H](CCC(=O)O)C(=O)N[C@@H](Cc1c[nH]c2ccccc12)C(=O)NCC(=O)N[C@@H](CCCNC(=N)N)C(=O)N[C@H](C(=O)N[C@@H](CCCNC(=N)N)C(=O)N[C@H]1CSSC[C@@H](C(=O)N[C@H](C(=O)NCC(=O)NCC(=O)N[C@@H](CCCCN)C(=O)N[C@@H](CCCCNC(=O)CCCC[C@@H]2SC[C@@H]3NC(=O)N[C@@H]32)C(N)=O)C(C)C)NC(=O)[C@H](CCCNC(=N)N)NC(=O)CNC(=O)[C@H](Cc2ccc(O)cc2)NC(=O)[C@H](C(C)C)NC(=O)[C@H](CC(C)C)NC1=O)C(C)C [Clone 20A4] (H-KEIEAEWGRVRCLVYGRCVGGKK(Biotin)-NH2; disulfide 12-18 (inferred); N-terminus assumed) | -1 |  |  | 
2 |  | 34.6 |  |  | 1.07 | 0.71 | detectable binding | 7.2 | 1.21 | Insoluble, especially after freeze-thaw |  |  |  | CC(C)[C@H](NC(=O)[C@H](C)NC(=O)[C@H](CO)NC(=O)[C@@H](NC(=O)[C@H](Cc1ccccc1)NC(=O)[C@@H](NC(=O)[C@@H](NC(=O)[C@H](CC(=O)O)NC(=O)[C@H](CCCCN)NC(=O)[C@H](Cc1ccc(O)cc1)NC(=O)[C@@H](N)CC(=O)O)C(C)C)[C@@H](C)O)[C@@H](C)O)C(=O)N[C@@H](Cc1ccccc1)C(=O)N[C@@H](Cc1c[nH]cn1)C(=O)N[C@@H](CCC(=O)O)C(=O)N[C@@H](CC(N)=O)C(=O)N[C@@H](Cc1ccccc1)C(=O)N[C@@H](Cc1ccc(O)cc1)C(=O)N[C@@H](CC(=O)O)C(=O)N[C@@H](Cc1c[nH]c2ccccc12)C(=O)N[C@@H](Cc1ccccc1)C(=O)N[C@H](C(=O)N[C@@H](CCCNC(=N)N)C(=O)N[C@@H](CCC(N)=O)C(=O)N[C@H](C(=O)N[C@@H](CO)C(=O)N[C@@H](CCCCN)C(=O)N[C@@H](CCCCNC(=O)CCCC[C@@H]1SC[C@@H]2NC(=O)N[C@@H]21)C(N)=O)C(C)C)C(C)C [Clone H2] | +2 | Some response at basal insulin | Approx 20 µM | 20 to 30
3 |  |  |  | 0 |  |  | do not have detectable binding | 1.8 |  |  |  |  |  | CC[C@H](C)[C@@H]1NC(=O)[C@H](CCCNC(=N)N)NC(=O)[C@H](C(C)C)NC(=O)CNC(=O)[C@H](Cc2c[nH]c3ccccc23)NC(=O)[C@H](CO)NC(=O)[C@H](CCC(N)=O)NC(=O)[C@@H](NC(=O)[C@H](CC(C)C)NC(=O)[C@H](CC(=O)O)NC(=O)[C@H](CCCCN)NC(=O)[C@H](Cc2ccc(O)cc2)NC(=O)[C@@H](N)CC(=O)O)CSSC[C@@H](C(=O)N2CCC[C@H]2C(=O)N[C@@H](CCCCN)C(=O)N[C@@H](CCCCNC(=O)CCCC[C@@H]2SC[C@@H]3NC(=O)N[C@@H]32)C(N)=O)NC(=O)[C@H](CC(C)C)NC(=O)CNC(=O)[C@H](C)NC(=O)[C@H](CC(C)C)NC(=O)[C@H](Cc2c[nH]c3ccccc23)NC(=O)CNC1=O [JBA5] (H-DYKDLCQSWGVRIGWLAGLCPKK(Biotin)-NH2; disulfide 6-20 (inferred); N-terminus assumed) | +2 | Slight effect at basal insulin | > 20 µM | 
4 |  |  |  |  | 1.03 | 0.62 |  | 8.6 | 1.02 | Precipitates | 40-50 % of control | 0.81 | ≥ 20 | FHENFYDWFVRQVSKK [Clone H2C] | +2 | Some response at basal insulin | Approx 20 µM | 20 to 30
